{"source": "paper PMC4858680", "about": "“A platinum-based hybrid drug design approach to circumvent acquired resistance to molecular targeted tyrosine kinase inhibitors” (Scientific Reports, 2016)", "type_in_all_cases": "binding", "key": {"EPHA3": {"target": "T1, EPHA3 (Homo sapiens, UniProt P29320)", "T1 construct": "purchased DiscoveRx KINOMEscan", "T1 sequence (P29320 21-983)": "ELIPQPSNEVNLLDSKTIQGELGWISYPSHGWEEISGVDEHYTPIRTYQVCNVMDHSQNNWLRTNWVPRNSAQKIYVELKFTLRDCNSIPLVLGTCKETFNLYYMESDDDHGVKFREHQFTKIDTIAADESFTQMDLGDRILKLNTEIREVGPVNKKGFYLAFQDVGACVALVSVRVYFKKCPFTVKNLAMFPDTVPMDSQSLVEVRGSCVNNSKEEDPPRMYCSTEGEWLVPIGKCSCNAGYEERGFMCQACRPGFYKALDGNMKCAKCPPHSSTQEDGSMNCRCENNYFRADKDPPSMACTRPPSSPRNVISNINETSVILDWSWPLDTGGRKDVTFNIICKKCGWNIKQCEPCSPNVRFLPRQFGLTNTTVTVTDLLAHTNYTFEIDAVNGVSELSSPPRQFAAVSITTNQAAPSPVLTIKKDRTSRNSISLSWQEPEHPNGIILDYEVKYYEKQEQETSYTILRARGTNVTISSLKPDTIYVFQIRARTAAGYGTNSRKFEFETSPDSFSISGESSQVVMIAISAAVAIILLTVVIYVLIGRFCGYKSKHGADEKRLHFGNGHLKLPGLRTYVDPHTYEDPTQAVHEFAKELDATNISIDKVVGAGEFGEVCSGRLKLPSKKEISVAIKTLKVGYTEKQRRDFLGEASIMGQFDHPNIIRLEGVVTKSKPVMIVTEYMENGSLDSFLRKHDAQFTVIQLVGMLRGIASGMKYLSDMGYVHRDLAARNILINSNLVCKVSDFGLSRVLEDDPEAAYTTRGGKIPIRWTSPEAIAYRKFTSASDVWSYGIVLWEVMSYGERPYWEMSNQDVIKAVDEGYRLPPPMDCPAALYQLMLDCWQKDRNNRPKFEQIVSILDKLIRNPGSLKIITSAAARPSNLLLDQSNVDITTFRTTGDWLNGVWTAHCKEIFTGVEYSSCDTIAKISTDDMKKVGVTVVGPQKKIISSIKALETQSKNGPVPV", "conditions": "for remaining binding at 10 µM: read-out: Percent control"}, "EPHA7": {"target": "T2, EPHA7 (Homo sapiens, UniProt Q15375)", "T2 construct": "purchased DiscoveRx KINOMEscan", "T2 sequence (Q15375 28-998)": "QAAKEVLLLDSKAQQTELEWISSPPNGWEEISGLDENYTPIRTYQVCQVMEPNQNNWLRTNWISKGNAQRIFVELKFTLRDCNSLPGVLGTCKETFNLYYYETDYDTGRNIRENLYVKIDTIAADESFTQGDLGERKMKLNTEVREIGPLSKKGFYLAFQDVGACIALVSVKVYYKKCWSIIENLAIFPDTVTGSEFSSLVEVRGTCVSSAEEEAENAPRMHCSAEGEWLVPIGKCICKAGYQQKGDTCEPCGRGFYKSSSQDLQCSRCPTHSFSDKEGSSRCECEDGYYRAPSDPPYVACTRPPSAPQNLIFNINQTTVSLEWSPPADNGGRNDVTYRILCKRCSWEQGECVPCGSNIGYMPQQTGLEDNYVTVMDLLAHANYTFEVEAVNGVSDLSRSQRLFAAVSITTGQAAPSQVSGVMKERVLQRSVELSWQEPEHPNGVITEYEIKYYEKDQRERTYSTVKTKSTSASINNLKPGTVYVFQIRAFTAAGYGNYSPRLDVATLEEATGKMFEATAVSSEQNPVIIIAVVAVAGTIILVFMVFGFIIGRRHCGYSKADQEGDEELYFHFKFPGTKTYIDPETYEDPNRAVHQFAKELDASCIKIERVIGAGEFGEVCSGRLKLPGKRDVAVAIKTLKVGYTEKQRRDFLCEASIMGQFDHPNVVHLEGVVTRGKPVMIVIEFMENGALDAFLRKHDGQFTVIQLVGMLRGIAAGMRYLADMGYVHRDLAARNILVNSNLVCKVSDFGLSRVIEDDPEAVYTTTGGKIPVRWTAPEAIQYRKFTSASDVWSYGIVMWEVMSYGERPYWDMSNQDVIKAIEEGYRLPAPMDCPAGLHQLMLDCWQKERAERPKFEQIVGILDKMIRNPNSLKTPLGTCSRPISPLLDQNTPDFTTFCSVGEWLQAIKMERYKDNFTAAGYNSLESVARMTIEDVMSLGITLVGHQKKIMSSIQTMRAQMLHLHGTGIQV", "conditions": "for remaining binding at 10 µM: read-out: Percent control"}, "ERBB3": {"target": "T3, ERBB3 (Homo sapiens, UniProt P21860)", "T3 construct": "purchased DiscoveRx KINOMEscan", "T3 sequence (P21860 20-1342)": "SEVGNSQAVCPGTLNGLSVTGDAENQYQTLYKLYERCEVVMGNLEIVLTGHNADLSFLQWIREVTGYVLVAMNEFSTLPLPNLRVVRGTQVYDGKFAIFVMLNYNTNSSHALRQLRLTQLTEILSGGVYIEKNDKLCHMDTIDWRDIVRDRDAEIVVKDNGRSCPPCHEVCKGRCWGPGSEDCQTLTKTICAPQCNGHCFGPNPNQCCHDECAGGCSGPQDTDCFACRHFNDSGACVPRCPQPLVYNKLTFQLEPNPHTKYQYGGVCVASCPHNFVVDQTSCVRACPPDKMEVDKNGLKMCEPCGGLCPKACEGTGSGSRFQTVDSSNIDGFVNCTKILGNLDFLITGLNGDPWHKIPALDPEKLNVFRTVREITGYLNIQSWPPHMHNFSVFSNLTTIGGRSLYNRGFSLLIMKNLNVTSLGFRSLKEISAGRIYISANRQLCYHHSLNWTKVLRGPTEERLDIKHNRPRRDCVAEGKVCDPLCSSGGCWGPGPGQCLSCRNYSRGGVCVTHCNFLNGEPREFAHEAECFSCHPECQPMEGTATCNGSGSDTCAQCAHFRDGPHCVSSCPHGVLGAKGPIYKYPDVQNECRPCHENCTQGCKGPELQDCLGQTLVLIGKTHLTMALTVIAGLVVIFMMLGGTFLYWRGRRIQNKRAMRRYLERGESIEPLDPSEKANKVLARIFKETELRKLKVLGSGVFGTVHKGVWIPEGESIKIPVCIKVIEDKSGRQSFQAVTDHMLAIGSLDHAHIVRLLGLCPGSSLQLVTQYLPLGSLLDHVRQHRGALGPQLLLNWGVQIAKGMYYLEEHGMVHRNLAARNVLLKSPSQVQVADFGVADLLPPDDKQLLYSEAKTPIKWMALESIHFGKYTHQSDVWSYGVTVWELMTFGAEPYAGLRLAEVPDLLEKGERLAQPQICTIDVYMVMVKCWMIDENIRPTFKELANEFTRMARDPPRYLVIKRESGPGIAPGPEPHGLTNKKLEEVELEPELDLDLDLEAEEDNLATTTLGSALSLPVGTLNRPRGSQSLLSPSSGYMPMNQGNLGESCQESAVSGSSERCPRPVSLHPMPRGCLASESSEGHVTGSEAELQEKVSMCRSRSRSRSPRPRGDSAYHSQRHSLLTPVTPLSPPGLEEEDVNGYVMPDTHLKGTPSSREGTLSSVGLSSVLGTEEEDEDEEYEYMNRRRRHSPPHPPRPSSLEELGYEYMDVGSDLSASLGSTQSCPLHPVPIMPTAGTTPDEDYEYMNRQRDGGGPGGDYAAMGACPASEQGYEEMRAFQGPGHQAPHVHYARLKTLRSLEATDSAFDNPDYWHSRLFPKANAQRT", "conditions": "for Percent control: ERBB3, 10 μM; for remaining binding at 10 µM: read-out: Percent control"}, "ERBB4": {"target": "T4, ERBB4 (Homo sapiens, UniProt Q15303)", "T4 construct": "purchased DiscoveRx KINOMEscan", "T4 sequence (Q15303 26-1308)": "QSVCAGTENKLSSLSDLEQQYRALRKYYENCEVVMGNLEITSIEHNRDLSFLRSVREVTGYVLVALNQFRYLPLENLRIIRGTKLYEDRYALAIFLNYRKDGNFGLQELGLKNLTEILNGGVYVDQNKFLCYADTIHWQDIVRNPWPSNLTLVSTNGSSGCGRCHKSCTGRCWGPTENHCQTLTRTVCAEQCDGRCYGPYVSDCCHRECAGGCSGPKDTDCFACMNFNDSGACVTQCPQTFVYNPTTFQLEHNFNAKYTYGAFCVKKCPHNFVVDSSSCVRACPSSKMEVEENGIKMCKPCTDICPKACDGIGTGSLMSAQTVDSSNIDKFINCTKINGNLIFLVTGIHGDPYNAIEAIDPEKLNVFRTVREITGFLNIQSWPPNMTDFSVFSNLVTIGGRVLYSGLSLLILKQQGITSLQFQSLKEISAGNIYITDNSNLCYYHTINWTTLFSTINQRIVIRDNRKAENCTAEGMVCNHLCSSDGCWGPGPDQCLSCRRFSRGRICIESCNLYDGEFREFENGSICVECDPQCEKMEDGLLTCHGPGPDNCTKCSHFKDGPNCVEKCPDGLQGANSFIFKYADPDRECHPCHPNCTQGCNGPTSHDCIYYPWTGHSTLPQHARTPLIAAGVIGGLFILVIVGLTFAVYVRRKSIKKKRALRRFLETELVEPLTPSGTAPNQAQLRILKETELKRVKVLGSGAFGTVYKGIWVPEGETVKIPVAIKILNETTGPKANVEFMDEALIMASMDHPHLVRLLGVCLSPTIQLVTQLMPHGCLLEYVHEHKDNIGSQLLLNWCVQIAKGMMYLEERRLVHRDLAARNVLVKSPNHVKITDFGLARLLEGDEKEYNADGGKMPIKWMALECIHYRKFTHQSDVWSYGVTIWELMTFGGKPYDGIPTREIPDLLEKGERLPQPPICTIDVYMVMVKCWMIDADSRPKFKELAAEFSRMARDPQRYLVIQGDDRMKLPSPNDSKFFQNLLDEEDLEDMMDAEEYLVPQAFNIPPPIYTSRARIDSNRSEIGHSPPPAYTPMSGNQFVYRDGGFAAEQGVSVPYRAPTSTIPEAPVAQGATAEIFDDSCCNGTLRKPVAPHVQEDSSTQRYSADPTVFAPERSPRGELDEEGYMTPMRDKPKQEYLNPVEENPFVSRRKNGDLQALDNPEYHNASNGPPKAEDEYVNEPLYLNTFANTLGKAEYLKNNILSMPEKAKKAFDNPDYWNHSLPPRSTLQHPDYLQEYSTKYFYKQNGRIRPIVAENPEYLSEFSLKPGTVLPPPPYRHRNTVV", "conditions": "for remaining binding at 10 µM: read-out: Percent control"}, "FAK": {"target": "T5, FAK (Homo sapiens, UniProt Q05397)", "T5 construct": "purchased DiscoveRx KINOMEscan", "T5 sequence (Q05397 whole entry)": "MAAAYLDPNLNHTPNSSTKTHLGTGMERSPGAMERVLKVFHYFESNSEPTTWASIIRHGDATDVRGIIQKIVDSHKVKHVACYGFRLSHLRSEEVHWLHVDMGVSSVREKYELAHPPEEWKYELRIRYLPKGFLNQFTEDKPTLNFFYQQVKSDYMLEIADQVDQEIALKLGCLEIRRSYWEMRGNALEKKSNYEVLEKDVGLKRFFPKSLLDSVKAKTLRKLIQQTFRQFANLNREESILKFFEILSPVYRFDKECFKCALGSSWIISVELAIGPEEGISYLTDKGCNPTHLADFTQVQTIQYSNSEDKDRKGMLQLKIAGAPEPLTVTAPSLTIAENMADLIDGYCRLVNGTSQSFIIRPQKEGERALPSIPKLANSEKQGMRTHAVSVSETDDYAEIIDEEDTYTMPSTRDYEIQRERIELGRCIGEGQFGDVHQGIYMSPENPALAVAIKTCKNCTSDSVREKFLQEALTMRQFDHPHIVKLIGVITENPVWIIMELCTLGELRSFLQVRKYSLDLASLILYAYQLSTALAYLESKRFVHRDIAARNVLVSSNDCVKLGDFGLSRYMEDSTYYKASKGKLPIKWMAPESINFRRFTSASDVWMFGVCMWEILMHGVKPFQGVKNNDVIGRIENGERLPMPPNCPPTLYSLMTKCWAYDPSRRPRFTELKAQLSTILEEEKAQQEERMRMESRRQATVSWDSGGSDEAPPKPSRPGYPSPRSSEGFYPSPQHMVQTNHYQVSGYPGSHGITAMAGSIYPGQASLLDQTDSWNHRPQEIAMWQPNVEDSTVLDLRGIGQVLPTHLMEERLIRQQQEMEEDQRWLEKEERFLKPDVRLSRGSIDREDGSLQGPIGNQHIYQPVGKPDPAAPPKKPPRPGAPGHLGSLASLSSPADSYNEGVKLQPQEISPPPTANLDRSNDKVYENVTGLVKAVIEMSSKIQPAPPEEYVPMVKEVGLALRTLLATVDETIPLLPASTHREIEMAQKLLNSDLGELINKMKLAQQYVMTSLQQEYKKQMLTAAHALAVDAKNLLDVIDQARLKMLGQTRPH", "conditions": "for remaining binding at 10 µM: read-out: Percent control"}, "MERTK": {"target": "T6, MERTK (Homo sapiens, UniProt Q12866)", "T6 construct": "purchased DiscoveRx KINOMEscan", "T6 sequence (Q12866 21-999)": "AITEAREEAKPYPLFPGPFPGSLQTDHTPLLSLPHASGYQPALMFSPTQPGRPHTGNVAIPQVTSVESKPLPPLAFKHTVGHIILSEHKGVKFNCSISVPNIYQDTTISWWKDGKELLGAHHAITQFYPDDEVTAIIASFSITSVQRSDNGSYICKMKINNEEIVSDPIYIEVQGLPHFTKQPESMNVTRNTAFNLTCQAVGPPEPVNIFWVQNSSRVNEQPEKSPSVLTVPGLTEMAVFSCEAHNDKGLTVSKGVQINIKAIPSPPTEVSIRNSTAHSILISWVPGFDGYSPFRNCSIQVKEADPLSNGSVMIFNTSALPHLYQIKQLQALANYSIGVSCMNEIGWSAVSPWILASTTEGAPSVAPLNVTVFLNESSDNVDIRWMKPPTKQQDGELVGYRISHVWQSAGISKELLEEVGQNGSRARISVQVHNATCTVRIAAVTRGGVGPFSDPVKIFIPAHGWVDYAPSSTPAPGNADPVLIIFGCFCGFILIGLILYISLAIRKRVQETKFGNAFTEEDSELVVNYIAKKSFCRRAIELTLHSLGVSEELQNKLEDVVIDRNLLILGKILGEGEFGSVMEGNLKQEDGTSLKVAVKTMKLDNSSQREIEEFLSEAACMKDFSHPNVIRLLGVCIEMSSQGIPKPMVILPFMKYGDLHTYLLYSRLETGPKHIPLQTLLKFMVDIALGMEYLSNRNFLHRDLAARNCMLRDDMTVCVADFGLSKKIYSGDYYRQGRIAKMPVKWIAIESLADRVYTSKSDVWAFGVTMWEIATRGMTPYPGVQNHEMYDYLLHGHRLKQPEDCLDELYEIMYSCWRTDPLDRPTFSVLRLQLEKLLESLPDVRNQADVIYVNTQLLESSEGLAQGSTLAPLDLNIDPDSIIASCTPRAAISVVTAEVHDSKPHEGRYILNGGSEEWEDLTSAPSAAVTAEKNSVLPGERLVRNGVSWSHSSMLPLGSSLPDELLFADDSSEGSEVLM", "conditions": "for remaining binding at 10 µM: read-out: Percent control"}, "TNK1": {"target": "T7, TNK1 (Homo sapiens, UniProt Q13470)", "T7 construct": "purchased DiscoveRx (KINOMEscan service)", "T7 sequence (Q13470 1-666)": "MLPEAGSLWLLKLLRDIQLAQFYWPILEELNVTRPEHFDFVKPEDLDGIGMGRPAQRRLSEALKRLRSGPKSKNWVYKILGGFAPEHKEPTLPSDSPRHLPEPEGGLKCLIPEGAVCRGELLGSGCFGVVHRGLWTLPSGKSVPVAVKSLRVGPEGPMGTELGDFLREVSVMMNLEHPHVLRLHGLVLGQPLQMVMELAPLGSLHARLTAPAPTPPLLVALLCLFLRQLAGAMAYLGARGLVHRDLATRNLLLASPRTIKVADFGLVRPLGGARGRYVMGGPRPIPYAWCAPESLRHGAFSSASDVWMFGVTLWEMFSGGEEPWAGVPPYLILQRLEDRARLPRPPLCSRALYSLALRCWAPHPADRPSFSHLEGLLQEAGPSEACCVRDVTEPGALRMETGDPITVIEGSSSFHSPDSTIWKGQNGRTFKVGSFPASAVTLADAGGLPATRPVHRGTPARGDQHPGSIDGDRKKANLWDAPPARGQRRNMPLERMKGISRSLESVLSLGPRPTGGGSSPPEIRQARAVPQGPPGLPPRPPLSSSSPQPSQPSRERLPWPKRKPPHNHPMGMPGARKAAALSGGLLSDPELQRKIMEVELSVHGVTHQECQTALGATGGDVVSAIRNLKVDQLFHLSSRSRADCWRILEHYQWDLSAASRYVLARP", "conditions": "for Percent control: 10 μM; for remaining binding at 10 µM: read-out: Percent control"}}, "note": "Where two headings read alike, the source gives them in different places.", "data": [{"smiles": "C#Cc1cccc(Nc2c3cc(OCCOC)c(OCCOC)cc3nc[n+]2[Pt@SP2-2]([NH3+])([NH3+])[Cl])c1", "note": "[2a, cisplatin-erlotinib]", "values": [{"measurement": "Percent control", "setting": "EPHA3; EPHA3, 10 μM", "result": 60, "unit": "%"}, {"measurement": "Percent control", "setting": "EPHA7; EPHA7, 10 μM", "result": 67, "unit": "%"}, {"measurement": "Percent control", "setting": "ERBB3", "result": 100, "unit": "%"}, {"measurement": "Percent control", "setting": "ERBB4; ERBB4, 10 μM", "result": 47, "unit": "%"}, {"measurement": "Percent control", "setting": "FAK; FAK, 10 μM", "result": 94, "unit": "%"}, {"measurement": "Percent control", "setting": "MERTK; MERTK, 10 μM", "result": 100, "unit": "%"}, {"measurement": "Percent control", "setting": "TNK1", "result": 85, "unit": "%"}]}, {"smiles": "COc1cc2c(Nc3ccc(Br)cc3F)[n+]([Pt-2]3([Cl])[NH2+]C4CCCCC4[NH2+]3)cnc2cc1OCC1CCN(C)CC1", "note": "(stereo not drawn) [3b, oxaliplatin-vandetanib]", "values": [{"measurement": "Percent control", "setting": "EPHA3; EPHA3, 10 μM", "result": 30, "unit": "%"}, {"measurement": "Percent control", "setting": "EPHA7; EPHA7, 10 μM", "result": 79, "unit": "%"}, {"measurement": "Percent control", "setting": "ERBB3", "result": 4.1, "unit": "%"}, {"measurement": "Percent control", "setting": "ERBB4; ERBB4, 10 μM", "result": 56, "unit": "%"}, {"measurement": "Percent control", "setting": "FAK; FAK, 10 μM", "result": 86, "unit": "%"}, {"measurement": "Percent control", "setting": "MERTK; MERTK, 10 μM", "result": 17, "unit": "%"}, {"measurement": "Percent control", "setting": "TNK1", "result": 90, "unit": "%"}]}, {"smiles": "Cc1ccc(NC(=O)c2ccc(CN3CCN(C)CC3)cc2)cc1Nc1nccc(-c2cccnc2)[n+]1[Pt-2]1([Cl])[NH2+]C2CCCCC2[NH2+]1", "note": "(stereo not drawn) [1b, oxaliplatin-imatinib]", "values": [{"measurement": "Percent control", "setting": "EPHA3; EPHA3, 10 μM", "result": 64, "unit": "%"}, {"measurement": "Percent control", "setting": "EPHA7; EPHA7, 10 μM", "result": 100, "unit": "%"}, {"measurement": "Percent control", "setting": "ERBB3", "result": 100, "unit": "%"}, {"measurement": "Percent control", "setting": "ERBB4; ERBB4, 10 μM", "result": 93, "unit": "%"}, {"measurement": "Percent control", "setting": "FAK; FAK, 10 μM", "result": 90, "unit": "%"}, {"measurement": "Percent control", "setting": "MERTK; MERTK, 10 μM", "result": 100, "unit": "%"}, {"measurement": "Percent control", "setting": "TNK1", "result": 90, "unit": "%"}]}, {"smiles": "COc1cc2c(Nc3ccc(Br)cc3F)ncnc2cc1OCC1CCN(C)CC1", "note": "[Vandetanib, reference compound]", "values": [{"measurement": "remaining binding at 10 µM", "setting": "EPHA3; EPHA3, 10 μM", "result": 16.7, "unit": "%"}, {"measurement": "remaining binding at 10 µM", "setting": "EPHA7; EPHA7, 10 μM", "result": 19.4, "unit": "%"}, {"measurement": "remaining binding at 10 µM", "setting": "ERBB3", "result": 1.6, "unit": "%"}, {"measurement": "remaining binding at 10 µM", "setting": "ERBB4; ERBB4, 10 μM", "result": 4.5, "unit": "%"}, {"measurement": "remaining binding at 10 µM", "setting": "FAK; FAK, 10 μM", "result": 100, "unit": "%"}, {"measurement": "remaining binding at 10 µM", "setting": "MERTK; MERTK, 10 μM", "result": 12.3, "unit": "%"}, {"measurement": "remaining binding at 10 µM", "setting": "TNK1", "result": 100, "unit": "%"}]}, {"smiles": "Cc1ccc(NC(=O)c2ccc(CN3CCN(C)CC3)cc2)cc1Nc1nccc(-c2cccnc2)n1", "note": "[Imatinib, reference compound]", "values": [{"measurement": "Percent control", "setting": "EPHA3; EPHA3, 10 μM", "result": 100, "unit": "%"}, {"measurement": "Percent control", "setting": "EPHA7; EPHA7, 10 μM", "result": 100, "unit": "%"}, {"measurement": "Percent control", "setting": "ERBB3", "result": 100, "unit": "%"}, {"measurement": "Percent control", "setting": "ERBB4; ERBB4, 10 μM", "result": 100, "unit": "%"}, {"measurement": "Percent control", "setting": "FAK; FAK, 10 μM", "result": 100, "unit": "%"}, {"measurement": "Percent control", "setting": "MERTK; MERTK, 10 μM", "result": 100, "unit": "%"}, {"measurement": "Percent control", "setting": "TNK1", "result": 100, "unit": "%"}]}, {"smiles": "C#Cc1cccc(Nc2ncnc3cc(OCCOC)c(OCCOC)cc23)c1", "note": "[Erlotinib]", "values": [{"measurement": "remaining binding at 10 µM", "setting": "EPHA3", "result": 19.4, "unit": "%"}, {"measurement": "remaining binding at 10 µM", "setting": "EPHA7", "result": 12.3, "unit": "%"}, {"measurement": "remaining binding at 10 µM", "setting": "ERBB3", "result": 9.9, "unit": "%"}, {"measurement": "remaining binding at 10 µM", "setting": "ERBB4", "result": 2.2, "unit": "%"}, {"measurement": "remaining binding at 10 µM", "setting": "FAK", "result": 100, "unit": "%"}, {"measurement": "remaining binding at 10 µM", "setting": "MERTK", "result": 8.9, "unit": "%"}, {"measurement": "remaining binding at 10 µM", "setting": "TNK1", "result": 5.9, "unit": "%"}]}]}
